# Legend:
# EPAS1 protein = test: Western blotting of EPAS1 expression in CD4+ T cells treated with EPAS1 inhibitor; format: cell-based; conditions: human CD4+ T cells (patients with atopic dermatitis and healthy controls), inhibitor at 30 μM, FIG. 44
# From the text: (§1) Human peripheral blood samples were collected from atopic dermatitis patients and healthy volunteers in compliance with Institutional Review Board protocols of the facility. Human peripheral blood mononuclear cells (PBMC) were separated by Percoll (GE Healthcare) gradient centrifugation. The CD4^+ T cells were isolated from PBMCs by magnetic sorting by using Dynabeads human CD4 followed by treatment with DETACHaBEAD human CD4 (Life Technologies).
# (§2) After being suspended in complete RPMI 1640 medium, CD4^+ T cells (3×10^5 cells/well) were stimulated in a 24-well plate coated with anti-human CD3ε antibody (model “Hit3a”, Tonbo Biosciences) for 6 hours. In some experiments, the CD4^+ T cells were treated with EPAS1 inhibitors, FM19G11 or HIFVII at 30 μM (both from Calbiochem).
# Cells were lysed in 20 mM Tris-HCl buffer (pH 7.5) containing 1% Triton X-100, 150 mM NaCl, 1 mM EDTA, 1 mM EGTA, 2.5 mM sodium pyrophosphate, 1 mM β-glycerophosphate, 1 mM Na3VO4, and complete protease inhibitors (Roche).
# After centrifugation, the supernatants were mixed with an equal volume of 2× sample buffer (125 mM Tris-HCl, 0.01% bromophenacyl bromide, 4% SDS, 20% glycerol, and […] dithiothreitol). Samples were boiled for 5 minutes and analyzed by inmmunoblotting.
# The following antibodies were used. […]
# IL-2 gene = IL-2 gene expression in CD4+ T cells from patients with atopic dermatitis following TCR stimulation (real-time PCR); format: cell-based, human; conditions: anti-CD3ε stimulation 6 hours, inhibitor at 30 μM, FIG. 45 (b)
# From the text: as §1, §2
# (§3) Total RNA was extracted using ISOGEN (trade name, Nippon Gene). After treatment with RNase-free DNase I (Life Technologies), RNA samples were reverse-transcribed with oligo (dT) primers (Life Technologies) and SuperScript III reverse transcriptase (Life Technologies) for amplification by PCR.
# (§4) Real-time PCR was performed using ABI PRISM 7,000 Sequence Detection System (trade name, Applied Biosystems) and SYBR Green PCR Master Mix (Applied Biosystems).
# (§5) The expression levels of human and mouse target genes were normalized based on expression levels of GAPDH and HPRT. […]
# IL-31 gene = IL-31 gene expression in CD4+ T cells from patients with atopic dermatitis following TCR stimulation (real-time PCR); format: cell-based, human; conditions: anti-CD3ε stimulation 6 hours, inhibitor at 30 μM, FIG. 45 (a), (c)
# From the text: as §1, §2, §3, §4, §5
smiles,measurement,setting,value
"Cc1ccc(C(=O)COC(=O)c2cccc(NC(=O)c3ccc([N+](=O)[O-])cc3[N+](=O)[O-])c2)cc1 [FM19G11, 3-[(2,4-dinitrobenzoyl)amino]-benzoic acid 2-(4-methylphenyl)-2-oxoethyl ester]",expression level of EPAS1 protein,EPAS1 protein,markedly decreased
same,expression levels of the IL-2 gene following TCR stimulation,IL-2 gene,comparable
same,expression of the IL-31 gene following TCR stimulation,IL-31 gene,markedly suppressed

# Source: US11213020B2, “Atopic dermatitis model non-human animal and use thereof” (KYUSHU UNIVERSITY, NATIONAL UNIVERSITY CORPORATION, priority 2016, dated 2022)
